# PubChem BioAssay (NCI)
#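 Test compounds were applied to cells in 96-well plates for 48 hours at 5 doses. The concentration for 50% growth inhibition is given as GI50. TGI denotes the concentration required for complete inhibition of growth.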
# Assays:
# Experiment in all cases: DTP human tumour cell line panel, 48 h
# OVCAR-3 ovarian = tested on: OVCAR-3 ovarian
# UO-31 renal = tested on: UO-31 renal
# HOP-92 NSCLC = tested on: HOP-92 NSCLC
# K-562 leukemia = tested on: K-562 leukemia
# ACHN renal = tested on: ACHN renal
# UACC-257 melanoma = tested on: UACC-257 melanoma
# MALME-3M melanoma = tested on: MALME-3M melanoma
# NCI-H522 lung = tested on: NCI-H522 lung
# SK-OV-3 ovarian = tested on: SK-OV-3 ovarian
# CAKI-1 renal = tested on: CAKI-1 renal
SMILES,GI50 (OVCAR-3 ovarian),TGI (OVCAR-3 ovarian),GI50 (UO-31 renal),TGI (UO-31 renal),GI50 (HOP-92 NSCLC),TGI (HOP-92 NSCLC),GI50 (K-562 leukemia),TGI (K-562 leukemia),GI50 (ACHN renal),TGI (ACHN renal),GI50 (UACC-257 melanoma),TGI (UACC-257 melanoma),GI50 (MALME-3M melanoma),TGI (MALME-3M melanoma),GI50 (NCI-H522 lung),TGI (NCI-H522 lung),GI50 (SK-OV-3 ovarian),TGI (SK-OV-3 ovarian),TGI (CAKI-1 renal),GI50 (CAKI-1 renal)
O=[N+]([O-])c1cc([N+](=O)[O-])c(Cl)c(Cl)c1Cl,1180 nM,2.4 µM,1510 nM,3.08 µM,1680 nM,3.15 µM,725 nM,10.9 µM,1040 nM,2.3 µM,1430 nM,2.83 µM,1700 nM,3.77 µM,230 nM,0.605 µM,5.84 µM,18.4 µM,,
Cc1cc(=O)oc2c(CN3CCCCC3)c(O)ccc12,,> 100 µM,,,,> 100 µM,,> 100 µM,,> 100 µM,,> 100 µM,,> 100 µM,,> 100 µM,,,> 100 µM,
O=C(/C=C/C12c3ccccc3C(c3ccccc31)C1C(=O)N(c3ccccc3)C(=O)C12)c1ccc(Cl)cc1 (centres undefined),,,1120 nM,2.47 µM,1330 nM,3.26 µM,1550 nM,> 100 µM,1390 nM,2.81 µM,2130 nM,5.5 µM,1600 nM,3.37 µM,1740 nM,3.58 µM,5.28 µM,> 100 µM,3.52 µM,1020 nM
O=C(CC(=O)c1ccc([N+](=O)[O-])cc1)C(=O)Nc1nccs1,,> 100 µM,,> 100 µM,,> 100 µM,,> 100 µM,,> 100 µM,,,,> 100 µM,,> 100 µM,,> 100 µM,> 100 µM,
C[C@@H](C1CCC2C3C(=CC(=O)[C@@]21C)[C@H](C)[C@]1(CCC(=O)O1)C1OC31)[C@H]1C[C@]2(C)O[C@@](C)(O1)OC2(C)C (some centres undefined),,,,> 100 µM,,> 100 µM,,> 100 µM,,> 100 µM,,,,,,> 100 µM,,> 100 µM,> 100 µM,
CC(=O)OCCOCNC(=S)N/N=C/c1ccc2ccccc2n1,,> 100 µM,,> 100 µM,,,,> 100 µM,,> 100 µM,,> 100 µM,,> 100 µM,,62.7 µM,,> 100 µM,,
CC1(C)C(c2ccccc2)C12CCC1(C2=O)C(c2ccccc2)C1(C)C (centres undefined),,43.5 µM,,58.9 µM,,31.6 µM,,38.4 µM,,39 µM,,37.4 µM,,72.5 µM,,30.5 µM,,,60.3 µM,
CCN(CC)C(=O)CC1=C(C)/C(=C/c2[nH]c(-c3ccc[nH]3)cc2OC)N=C1C,509 nM,14.1 µM,554 nM,2.5 µM,235 nM,0.977 µM,,,374 nM,1.97 µM,1030 nM,4.85 µM,982 nM,9.05 µM,456 nM,14 µM,0.658 µM,8.3 µM,11.4 µM,383 nM
CCC1=C(C)/C(=C/c2[nH]c(C(Br)Br)c(CC)c2C)N=C1C(Br)Br,,> 100 µM,,> 100 µM,,> 100 µM,,> 100 µM,,> 100 µM,,57.6 µM,,76.4 µM,,38.1 µM,,> 100 µM,,
